Test results taken from patent US6395905B1, “Tetrahydroindazole derivatives as ligands for GABA-A α 5 receptors” (Merck Sharp & Dohme Ltd., priority 1999, dated 2002).

Question: Which melting point does the source give for `O=C(Nc1ccccc1)c1n[nH]c2c1C(=O)CCC2` [Example 1, 4-Oxo-4,5,6,7-tetrahydro-1H-indazole-3-carboxylic acid phenylamide] here?
Answer: Its melting point is 244 °C (dec.).

Question: Which melting point does the source give for `O=C(Nc1ccccn1)c1n[nH]c2c1C(=O)CCC2` [Example 3, 4-Oxo-4,5,6,7-tetrahydro-1H-indazole-3-carboxylic acid pyridin-2-ylamide] here?
Answer: Its melting point is 250 °C (dec.).

Question: Which melting point does the source give for `NCCc1ccc(NC(=O)c2n[nH]c3c2C(=O)CCC3)cc1` [Example 5, 4-Oxo-4,5,6,7-tetrahydro-1H-indazole-3-carboxylic acid 4-(2-aminoethyl)phenylamide] here?
Answer: The melting point was 250 °C (dec.).
